Assay results: patent US10227344B2, “CK2 inhibitors, compositions and methods thereof” (Polaris Pharmaceuticals, Inc., priority 2016, dated 2019)

What was measured:
Assay type in all cases: cell-based
NAMALWA = assay: Cancer cell panel, cell viability (resazurin): Burkitt's Lymphoma, NAMALWA; conditions: 72 hours, labelled drug combined with Example 3
Description: (§1) Cells were plated in 96-well plates and treated for 72 hours with a serially diluted CK2 inhibitor or anti-cancer drug or their combination. The suspension cell lines were treated right after plating, while the adherent cells were allowed to attach overnight prior to the start of the treatment.
(§2) Cell viability was determined by adding resazurin to cell cultures and measuring fluorescence with a plate reader. Relative cell viability was calculated by dividing the cell viability signal from a test sample by that of a non-treated control. […] Bliss Independence and Highest Single Agent models were used to determine if there is synergy, additivity or antagonism between the CK2 inhibitor and an anti-cancer drug.

Caki-1 = assay: Cancer cell panel, cell viability (resazurin): Renal, Caki-1; conditions: Caki-1 (Renal), 72 hours; labelled drug combined with Example 3
SK-MEL-3 = assay: Cancer cell panel, cell viability (resazurin): Melanoma, SK-MEL-3; conditions: SK-MEL-3 (Melanoma), 72 hours; labelled drug combined with Example 3
Description: as §1, §2

H460 = assay: Cancer cell panel, cell viability (resazurin): NSCLC, H460; conditions: 72 hours, labelled drug combined with Example 3
A2780 = assay: Cancer cell panel, cell viability (resazurin): Ovarian, A2780; conditions: 72 hours, labelled drug combined with Example 3
U87MG = assay: Cancer cell panel, cell viability (resazurin): Glioblastoma, U87MG; conditions: 72 hours, labelled drug combined with Example 3
Description: as §1, §2

MDA-MB-453 = assay: Cancer cell panel, cell viability (resazurin): Breast, MDA-MB-453; conditions: MDA-MB-453 (Breast), 72 hours; labelled drug combined with Example 3
Description: as §1, §2

LoVo = assay: Cancer cell panel, cell viability (resazurin): Colon, LoVo; conditions: 72 hours, labelled drug combined with Example 3
U266 = assay: Cancer cell panel, cell viability (resazurin): multiple myeloma, U266; conditions: 72 hours, labelled drug combined with Example 3
Description: as §1, §2

SKOV-3 = assay: Cancer cell panel, cell viability (resazurin): Ovarian, SKOV-3; conditions: SKOV-3 (Ovarian), 72 hours; labelled drug combined with Example 3
MDA-MB-157 = assay: Cancer cell panel, cell viability (resazurin): Breast, MDA-MB-157; conditions: MDA-MB-157 (Breast), 72 hours; labelled drug combined with Example 3
SkBr-3 = assay: Cancer cell panel, cell viability (resazurin): Breast, SkBr-3; conditions: SkBr-3 (Breast), 72 hours; labelled drug combined with Example 3
Description: as §1, §2

A549 = assay: Cancer cell panel, cell viability (resazurin): NSCLC, A549; conditions: 72 hours, labelled drug combined with Example 3
Description: as §1, §2

MeWO = assay: Cancer cell panel, cell viability (resazurin): Melanoma, MeWO; conditions: 72 hours, labelled drug combined with Example 3
Daudi = assay: Cancer cell panel, cell viability (resazurin): Burkitt's Lymphoma, Daudi; conditions: 72 hours, labelled drug combined with Example 3
Description: as §1, §2

Panc-1 = assay: Cancer cell panel, cell viability (resazurin): Pancreatic, Panc-1; conditions: Panc-1 (Pancreatic), 72 hours; labelled drug combined with Example 3
Description: as §1, §2

786-O = assay: Cancer cell panel, cell viability (resazurin): Renal, 786-O; conditions: 786-O (Renal), 72 hours; labelled drug combined with Example 3
BxPC3 = assay: Cancer cell panel, cell viability (resazurin): Pancreatic, BxPC3; conditions: 72 hours, labelled drug combined with Example 3
Description: as §1, §2

WM-115 = assay: Cancer cell panel, cell viability (resazurin): Melanoma, WM-115; conditions: WM-115 (Melanoma), 72 hours; labelled drug combined with Example 3
LnCap = assay: Cancer cell panel, cell viability (resazurin): Prostate, LnCap; conditions: 72 hours, labelled drug combined with Example 3
T47D = assay: Cancer cell panel, cell viability (resazurin): Breast, T47D; conditions: 72 hours, labelled drug combined with Example 3
Colo205 = assay: Cancer cell panel, cell viability (resazurin): Colon, Colo205; conditions: 72 hours, labelled drug combined with Example 3
Description: as §1, §2

ZR-75-1 = assay: Cancer cell panel, cell viability (resazurin): Breast, ZR-75-1; conditions: ZR-75-1 (Breast), 72 hours; labelled drug combined with Example 3
Description: as §1, §2

H1299 = assay: Cancer cell panel, cell viability (resazurin): NSCLC, H1299; conditions: 72 hours, labelled drug combined with Example 3
SK-MEL-24 = assay: Cancer cell panel, cell viability (resazurin): Melanoma, SK-MEL-24; conditions: SK-MEL-24 (Melanoma), 72 hours; labelled drug combined with Example 3
A375 = assay: Cancer cell panel, cell viability (resazurin): Melanoma, A375; conditions: 72 hours, labelled drug combined with Example 3
BT-20 = assay: Cancer cell panel, cell viability (resazurin): Breast, BT-20; conditions: BT-20 (Breast), 72 hours; labelled drug combined with Example 3
HCT116 = assay: Cancer cell panel, cell viability (resazurin): Colon, HCT116; conditions: 72 hours, labelled drug combined with Example 3
Mia-Paca-2 = assay: Cancer cell panel, cell viability (resazurin): Pancreatic, Mia-Paca-2; conditions: Mia-Paca-2 (Pancreatic), 72 hours; labelled drug combined with Example 3
MDA-MB-231 = assay: Cancer cell panel, cell viability (resazurin): Breast, MDA-MB-231; conditions: MDA-MB-231 (Breast), 72 hours; labelled drug combined with Example 3
Description: as §1, §2

Caov-3 = assay: Cancer cell panel, cell viability (resazurin): Ovarian, Caov-3; conditions: Caov-3 (Ovarian), 72 hours; labelled drug combined with Example 3
Description: as §1, §2

EOL-1 = assay: Cancer cell panel, cell viability (resazurin): Leukemia, EOL-1; conditions: EOL-1 (Leukemia), 72 hours; labelled drug combined with Example 3
Description: as §1, §2

H2122 = assay: Cancer cell panel, cell viability (resazurin): NSCLC, H2122; conditions: 72 hours, labelled drug combined with Example 3
Description: as §1, §2

PC3 = assay: Cancer cell panel, cell viability (resazurin): Prostate, PC3; conditions: 72 hours, labelled drug combined with Example 3
Raji = assay: Cancer cell panel, cell viability (resazurin): Burkitt's Lymphoma, Raji; conditions: 72 hours, labelled drug combined with Example 3
ACHN = assay: Cancer cell panel, cell viability (resazurin): Renal, ACHN; conditions: 72 hours, labelled drug combined with Example 3
Description: as §1, §2

MOLT4 = assay: Cancer cell panel, cell viability (resazurin): Leukemia, MOLT4; conditions: 72 hours, labelled drug combined with Example 3
H1975 = assay: Cancer cell panel, cell viability (resazurin): NSCLC, H1975; conditions: 72 hours, labelled drug combined with Example 3
DLD-1 = assay: Cancer cell panel, cell viability (resazurin): Colon, DLD-1; conditions: DLD-1 (Colon), 72 hours; labelled drug combined with Example 3
HL60 = assay: Cancer cell panel, cell viability (resazurin): Leukemia, HL60; conditions: 72 hours, labelled drug combined with Example 3
Description: as §1, §2

Caki-2 = assay: Cancer cell panel, cell viability (resazurin): Renal, Caki-2; conditions: Caki-2 (Renal), 72 hours; labelled drug combined with Example 3
Description: as §1, §2

H23 = assay: Cancer cell panel, cell viability (resazurin): NSCLC, H23; conditions: 72 hours, labelled drug combined with Example 3
Description: as §1, §2

N.N.[Cl][Pt][Cl] [Cisplatin, cisplatin]
synergy, additivity or antagonism of the combination of Example 3 with the anti-cancer drug (NAMALWA): + (Additive relative to each agent alone (CI = 0.9-1 by Bliss Independence Model and <0.9 by Highest Single Agent Model)) | synergy, additivity or antagonism of the combination of Example 3 with the anti-cancer drug (Caki-1): + (Additive relative to each agent alone (CI = 0.9-1 by Bliss Independence Model and <0.9 by Highest Single Agent Model)) | synergy, additivity or antagonism of the combination of Example 3 with the anti-cancer drug (SK-MEL-3): + (Additive relative to each agent alone (CI = 0.9-1 by Bliss Independence Model and <0.9 by Highest Single Agent Model)) | synergy, additivity or antagonism of the combination of Example 3 with the anti-cancer drug (H460): + + (Slight synergy relative to each agent alone (CI = 0.75-0.9 by Bliss Independence Model)) | synergy, additivity or antagonism of the combination of Example 3 with the anti-cancer drug (A2780): + + + + (Strong synergy relative to each agent alone (CI < 0.4 by Bliss Independence Model)) | synergy, additivity or antagonism of the combination of Example 3 with the anti-cancer drug (U87MG): + (Additive relative to each agent alone (CI = 0.9-1 by Bliss Independence Model and <0.9 by Highest Single Agent Model)) | synergy, additivity or antagonism of the combination of Example 3 with the anti-cancer drug (MDA-MB-453): + + (Slight synergy relative to each agent alone (CI = 0.75-0.9 by Bliss Independence Model)) | synergy, additivity or antagonism of the combination of Example 3 with the anti-cancer drug (LoVo): + + (Slight synergy relative to each agent alone (CI = 0.75-0.9 by Bliss Independence Model)) | synergy, additivity or antagonism of the combination of Example 3 with the anti-cancer drug (U266): + (Additive relative to each agent alone (CI = 0.9-1 by Bliss Independence Model and <0.9 by Highest Single Agent Model)) | synergy, additivity or antagonism of the combination of Example 3 with the anti-cancer drug (SKOV-3): + (Additive relative to each agent alone (CI = 0.9-1 by Bliss Independence Model and <0.9 by Highest Single Agent Model)) | synergy, additivity or antagonism of the combination of Example 3 with the anti-cancer drug (MDA-MB-157): + + + (Synergy relative to each agent alone (CI = 0.4-0.74 by Bliss Independence Model)) | synergy, additivity or antagonism of the combination of Example 3 with the anti-cancer drug (SkBr-3): + + (Slight synergy relative to each agent alone (CI = 0.75-0.9 by Bliss Independence Model)) | synergy, additivity or antagonism of the combination of Example 3 with the anti-cancer drug (A549): + + + + (Strong synergy relative to each agent alone (CI < 0.4 by Bliss Independence Model)) | synergy, additivity or antagonism of the combination of Example 3 with the anti-cancer drug (MeWO): + (Additive relative to each agent alone (CI = 0.9-1 by Bliss Independence Model and <0.9 by Highest Single Agent Model)) | synergy, additivity or antagonism of the combination of Example 3 with the anti-cancer drug (Daudi): + (Additive relative to each agent alone (CI = 0.9-1 by Bliss Independence Model and <0.9 by Highest Single Agent Model)) | synergy, additivity or antagonism of the combination of Example 3 with the anti-cancer drug (Panc-1): + (Additive relative to each agent alone (CI = 0.9-1 by Bliss Independence Model and <0.9 by Highest Single Agent Model)) | synergy, additivity or antagonism of the combination of Example 3 with the anti-cancer drug (786-O): + + (Slight synergy relative to each agent alone (CI = 0.75-0.9 by Bliss Independence Model)) | synergy, additivity or antagonism of the combination of Example 3 with the anti-cancer drug (BxPC3): + (Additive relative to each agent alone (CI = 0.9-1 by Bliss Independence Model and <0.9 by Highest Single Agent Model)) | synergy, additivity or antagonism of the combination of Example 3 with the anti-cancer drug (WM-115): + + (Slight synergy relative to each agent alone (CI = 0.75-0.9 by Bliss Independence Model)) | synergy, additivity or antagonism of the combination of Example 3 with the anti-cancer drug (LnCap): + + (Slight synergy relative to each agent alone (CI = 0.75-0.9 by Bliss Independence Model)) | synergy, additivity or antagonism of the combination of Example 3 with the anti-cancer drug (T47D): + (Additive relative to each agent alone (CI = 0.9-1 by Bliss Independence Model and <0.9 by Highest Single Agent Model)) | synergy, additivity or antagonism of the combination of Example 3 with the anti-cancer drug (Colo205): + + (Slight synergy relative to each agent alone (CI = 0.75-0.9 by Bliss Independence Model)) | synergy, additivity or antagonism of the combination of Example 3 with the anti-cancer drug (ZR-75-1): + (Additive relative to each agent alone (CI = 0.9-1 by Bliss Independence Model and <0.9 by Highest Single Agent Model)) | synergy, additivity or antagonism of the combination of Example 3 with the anti-cancer drug (H1299): + (Additive relative to each agent alone (CI = 0.9-1 by Bliss Independence Model and <0.9 by Highest Single Agent Model)) | synergy, additivity or antagonism of the combination of Example 3 with the anti-cancer drug (SK-MEL-24): + + (Slight synergy relative to each agent alone (CI = 0.75-0.9 by Bliss Independence Model)) | synergy, additivity or antagonism of the combination of Example 3 with the anti-cancer drug (A375): + + (Slight synergy relative to each agent alone (CI = 0.75-0.9 by Bliss Independence Model)) | synergy, additivity or antagonism of the combination of Example 3 with the anti-cancer drug (BT-20): + + (Slight synergy relative to each agent alone (CI = 0.75-0.9 by Bliss Independence Model)) | synergy, additivity or antagonism of the combination of Example 3 with the anti-cancer drug (HCT116): + (Additive relative to each agent alone (CI = 0.9-1 by Bliss Independence Model and <0.9 by Highest Single Agent Model)) | synergy, additivity or antagonism of the combination of Example 3 with the anti-cancer drug (Mia-Paca-2): + (Additive relative to each agent alone (CI = 0.9-1 by Bliss Independence Model and <0.9 by Highest Single Agent Model)) | synergy, additivity or antagonism of the combination of Example 3 with the anti-cancer drug (MDA-MB-231): + (Additive relative to each agent alone (CI = 0.9-1 by Bliss Independence Model and <0.9 by Highest Single Agent Model)) | synergy, additivity or antagonism of the combination of Example 3 with the anti-cancer drug (Caov-3): + (Additive relative to each agent alone (CI = 0.9-1 by Bliss Independence Model and <0.9 by Highest Single Agent Model)) | synergy, additivity or antagonism of the combination of Example 3 with the anti-cancer drug (EOL-1): + + (Slight synergy relative to each agent alone (CI = 0.75-0.9 by Bliss Independence Model)) | synergy, additivity or antagonism of the combination of Example 3 with the anti-cancer drug (H2122): + + (Slight synergy relative to each agent alone (CI = 0.75-0.9 by Bliss Independence Model)) | synergy, additivity or antagonism of the combination of Example 3 with the anti-cancer drug (PC3): + (Additive relative to each agent alone (CI = 0.9-1 by Bliss Independence Model and <0.9 by Highest Single Agent Model)) | synergy, additivity or antagonism of the combination of Example 3 with the anti-cancer drug (Raji): + + (Slight synergy relative to each agent alone (CI = 0.75-0.9 by Bliss Independence Model)) | synergy, additivity or antagonism of the combination of Example 3 with the anti-cancer drug (ACHN): + (Additive relative to each agent alone (CI = 0.9-1 by Bliss Independence Model and <0.9 by Highest Single Agent Model)) | synergy, additivity or antagonism of the combination of Example 3 with the anti-cancer drug (MOLT4): + + (Slight synergy relative to each agent alone (CI = 0.75-0.9 by Bliss Independence Model)) | synergy, additivity or antagonism of the combination of Example 3 with the anti-cancer drug (H1975): + (Additive relative to each agent alone (CI = 0.9-1 by Bliss Independence Model and <0.9 by Highest Single Agent Model)) | synergy, additivity or antagonism of the combination of Example 3 with the anti-cancer drug (DLD-1): + (Additive relative to each agent alone (CI = 0.9-1 by Bliss Independence Model and <0.9 by Highest Single Agent Model)) | synergy, additivity or antagonism of the combination of Example 3 with the anti-cancer drug (HL60): + (Additive relative to each agent alone (CI = 0.9-1 by Bliss Independence Model and <0.9 by Highest Single Agent Model)) | synergy, additivity or antagonism of the combination of Example 3 with the anti-cancer drug (Caki-2): + (Additive relative to each agent alone (CI = 0.9-1 by Bliss Independence Model and <0.9 by Highest Single Agent Model)) | synergy, additivity or antagonism of the combination of Example 3 with the anti-cancer drug (H23): + + + (Synergy relative to each agent alone (CI = 0.4-0.74 by Bliss Independence Model))
